From US7109197B2, “N-phenyl-4-(4-pyridyl)-2-pyrimidineamine derivatives” (Syngenta Crop Protection, Inc., priority 2000, dated 2006) come the findings set out here.

Common to all, as to type: in vivo
For one assay, the system named is Venturia inaegualis. The assay is described as follows: Assay B-5: Residual protective activity against Venturia inaegualis on apples (scab on apple). To be noted: Venturia inaegualis on apple seedlings cv. McIntosh; 0.02% active substance, spray.
Another assay relates to Pyricularia oryzae. To be noted: Pyricularia oryzae on rice cv. Sasanishiki; 0.02% active substance, spray.
For assay [1], the system named is Botrytis cinerea. The assay is described as follows: Assay B-7: Botrytis cinerea/grape (Botrytis on grapes). The following applies: Botrytis cinerea on grape seedlings cv. Gutedel; 0.02% active substance, spray. On the procedure: Assay B-7: Botrytis cinerea/Grape (Botrytis on Grapes) 5 week old grape seedlings cv. Gutedel are treated with the formulated testcompound (0.02% active substance) in a spray chamber. Two days after application grape plants are inoculated by spraying a spore suspension (1×10^6 conidia/ml) on the test plants. After an incubation period of 4 days at 21° C. and 95% r. h. in a greenhouse the disease incidence is assessed.

Assay [2] relates to Botrytis cinerea. The assay is described as follows: Assay B-8: Effect against Botrytis cinerea/tomato (Botrytis on tomatoes). The following applies: Botrytis cinerea on tomato cv. Roter Gnom; 0.02% active substance, spray. On the procedure:
Assay B-8: Effect Against Botrytis cinerea/Tomato (Botrytis on Tomatoes) 4 week old tomato plants cv. Roter Gnom are treated with the formulated testcompound 0.02% active substance) in a spray chamber. Two days after application tomato plants are inoculated by spraying a spore suspension (1×10^5 conidia/ml) on the test plants. After an incubation period of 4 days at 20° C. and 95% r. h. in a greenhouse the disease incidence is assessed.

In the next assay the test system is Fusarium culmorum. To be noted: in vivo.
For assay [3], the system named is Pyrenophora teres (Helminthosporium). The experiment in a line: Assay B-10: Effect against Pyrenophora teres (Helminthosporium)/barley (net blotch on barley). The following applies: Pyrenophora teres on barley cv. Regina; 0.02% active substance, spray. The procedure, abridged: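 One-week-old barley cv. Regina sprayed with formulated compound at 0.02% active substance, then inoculated 2 days later with 3×10^4 conidia/ml. Held 2 days at 20° C/95% r.h., then 2 days at 20° C/60% r.h.; disease incidence scored 4 days after inoculation.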

Another assay relates to Septoria nodorum. The experiment in a line: Assay B-12: Effect against Septoria nodorum/wheat (Septoria leaf spot on wheat). The following applies: Septoria nodorum on wheat cv. Arina; 0.02% active substance, spray.
A further assay deals with Erysiphe graminis. The experiment in a line: Assay B-6: Effect against Erysiphe graminis on barley (powdery mildew); residual protective / systemic activity. To be noted: 0.02% active substance spray (residual) or 0.002% soil (systemic), variant not stated. On the procedure:
Assay B-6: Effect Against Erysiphe graminis on Barley (Powdery Mildew on Barley) a) Residual Protective Activity […] The infected plants are placed in a greenhouse at 22°. 12 days after infection, the fungal attack is evaluated. b) Systemic Activity […] […] 48 hours later, the plants are dusted with conidia of the fungus. The infected plants are placed in a greenhouse at 22° C. 12 days after infection, the disease incidence is evaluated.

Regarding `CC(=Nc1cc(-c2ccnc(Nc3cccc(Cl)c3)n2)ccn1)N(C)C` [Compound 66], in the assay on Venturia inaegualis, the B5 activity entry is “+ (the activity observed in the corresponding test system is 70% or more)”. Besides, the B9 activity entry with Pyricularia oryzae was “+ (the activity observed in the corresponding test system is 70% or more)”. In the assay on Botrytis cinerea [1], the B7 activity entry was “+ (the activity observed in the corresponding test system is 70% or more)”. Besides, the B8 activity entry in the assay with Botrytis cinerea [2] is given as “+ (the activity observed in the corresponding test system is 70% or more)”. In addition, the B11 activity result in the assay on Fusarium culmorum is recorded as “+ (key: +: the activity observed in the corresponding test system is 70% or more)”. For the same molecule, the B10 activity entry in assay [3] is listed as “+ (the activity observed in the corresponding test system is 70% or more)”. For the same molecule, the B12 activity entry in the assay with Septoria nodorum was “+ (the activity observed in the corresponding test system is 70% or more)”.

Take `CCC(COC)Nc1cc(-c2ccnc(Nc3cccc(Cl)c3)n2)ccn1` (stereo not drawn) [Compound 4]: the B6 activity result with Erysiphe graminis is given as “+ (the activity observed in the corresponding test system is 70% or more)”. In addition, the B9 activity result with Pyricularia oryzae is listed as “+ (the activity observed in the corresponding test system is 70% or more)”. The B8 activity result in the assay with Botrytis cinerea [2] is listed as “+ (the activity observed in the corresponding test system is 70% or more)”. For the same molecule, the B11 activity entry in the assay on Fusarium culmorum is recorded as “+ (key: +: the activity observed in the corresponding test system is 70% or more)”. Also, in the assay with Septoria nodorum, the B12 activity result is given as “+ (the activity observed in the corresponding test system is 70% or more)”.
